Legend:
[1] = tested on: intraocular pressure in dogs; assay: IOP reduction after topical administration to normotensive dogs; assay type: in vivo, dog; details: topical 25 μL, 6 hours after administration
Description: (§1) A series of prostamides were selected as potential candidates for an intracameral biodegradable drug delivery system (e.g., an implant) and tested for their ability to lower IOP by direct administration to the aqueous humor (therefore, by intracameral administration). Table 1 lists the EC50 values (nM) obtained from the feline (cat) iris assay, calculated log P values (clog P), and IOP reduction values obtained after either topical or intracameral administration for different prostamides. Intracameral drug administration was accomplished by placing an infusion pump in the subcutaneous pocket in the neck of dogs with a cannula running into the anterior chamber of the eye. Test runs were carried out to measure and compare the concentration of the compound in the solution exiting the pump with that initially added to the pump in order to confirm the dosing level.

[2] = tested on: intraocular pressure in dogs; assay: IOP reduction after intracameral administration by infusion pump in dogs; assay type: in vivo, dog; details: for Intracameral Administration (dogs) Max IOP reduction: infusion pump into anterior chamber, 2-3 weeks, vs baseline
Description: as §1

[3] = biological target: Prostamide/FP receptor (Felis catus, UniProt A0ABI7XJ69); assay: Cat iris sphincter assay (contraction of isolated feline iris sphincter muscle); assay type: cell-based
Chain of Prostamide/FP receptor (A0ABI7XJ69 entry or part of it): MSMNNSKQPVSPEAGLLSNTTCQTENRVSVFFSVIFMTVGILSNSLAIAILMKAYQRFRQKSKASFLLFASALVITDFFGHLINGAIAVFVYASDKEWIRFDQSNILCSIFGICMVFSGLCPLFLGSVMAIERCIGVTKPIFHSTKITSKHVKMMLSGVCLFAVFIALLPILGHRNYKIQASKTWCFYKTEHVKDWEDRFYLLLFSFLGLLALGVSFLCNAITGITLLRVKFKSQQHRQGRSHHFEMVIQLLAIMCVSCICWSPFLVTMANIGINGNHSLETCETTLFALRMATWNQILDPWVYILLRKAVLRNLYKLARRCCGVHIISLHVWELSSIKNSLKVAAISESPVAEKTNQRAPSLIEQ

| Compound | Topical Administration (dogs) IOP reduction ([1]; concentration 0.03% (w/v)) | Intracameral Administration (dogs) Max IOP reduction ([2]; dose 15 ng/day) | IOP reduction when administered intracamerally, compared with bimatoprost (in words) ([2]; normotensive dog eye, directly to the anterior chamber) | Topical Administration (dogs) IOP reduction ([1]; concentration 0.01% (w/v)) | Intracameral Administration (dogs) Max IOP reduction ([2]; dose 108 ng/day) | EC50 [3] | Intracameral Administration (dogs) Max IOP reduction ([2]; dose 100 ng/day) |
| --- | --- | --- | --- | --- | --- | --- | --- |
| NC(=O)CCC/C=C\C[C@@H]1[C@@H](/C=C/[C@@H](O)CCc2cc(Cl)sc2Cl)[C@H](O)C[C@@H]1O [Compound 1] | −5 mm Hg | ~35% | reduces IOP effectively and much more efficiently than bimatoprost |  |  |  |  |
| CCNC(=O)CCC/C=C\C[C@@H]1[C@@H](/C=C/[C@@H](O)CCc2ccccc2)[C@H](O)C[C@@H]1O [Compound 3, Bimatoprost] |  |  |  | −3.6 mm Hg | ~45% |  |  |
| CCNC(=O)CCC/C=C\C[C@@H]1[C@@H](/C=C/[C@@H](O)CCc2cc(Br)c(C)s2)[C@H](O)C[C@@H]1O [Compound 4] | −3 mm Hg | <10% |  |  |  | 25 nM |  |
| CCCCC[C@@H](/C=C/[C@@H]1[C@@H](C/C=C\CCCC(N)=O)[C@@H](O)C[C@H]1O)OC [Compound 5] |  |  |  | −3 to −4 mm Hg |  |  | ~20% |

Reference: US10668081B2, “Prostamide-containing intraocular implant” (Allergan, Inc., priority 2013, dated 2020)
